We go through 20 compounds from patent publication EP3623369A1, “NOVEL MORPHOLINYL AMINE COMPOUNDS FOR THE TREATMENT OF AUTOIMMUNE DISEASE” (F. Hoffmann-La Roche AG, priority 2018, dated 2020).

This experiment addresses T1, hTLR9 (Homo sapiens, UniProt Q9NR96).
T1 sequence (Q9NR96 26-1032): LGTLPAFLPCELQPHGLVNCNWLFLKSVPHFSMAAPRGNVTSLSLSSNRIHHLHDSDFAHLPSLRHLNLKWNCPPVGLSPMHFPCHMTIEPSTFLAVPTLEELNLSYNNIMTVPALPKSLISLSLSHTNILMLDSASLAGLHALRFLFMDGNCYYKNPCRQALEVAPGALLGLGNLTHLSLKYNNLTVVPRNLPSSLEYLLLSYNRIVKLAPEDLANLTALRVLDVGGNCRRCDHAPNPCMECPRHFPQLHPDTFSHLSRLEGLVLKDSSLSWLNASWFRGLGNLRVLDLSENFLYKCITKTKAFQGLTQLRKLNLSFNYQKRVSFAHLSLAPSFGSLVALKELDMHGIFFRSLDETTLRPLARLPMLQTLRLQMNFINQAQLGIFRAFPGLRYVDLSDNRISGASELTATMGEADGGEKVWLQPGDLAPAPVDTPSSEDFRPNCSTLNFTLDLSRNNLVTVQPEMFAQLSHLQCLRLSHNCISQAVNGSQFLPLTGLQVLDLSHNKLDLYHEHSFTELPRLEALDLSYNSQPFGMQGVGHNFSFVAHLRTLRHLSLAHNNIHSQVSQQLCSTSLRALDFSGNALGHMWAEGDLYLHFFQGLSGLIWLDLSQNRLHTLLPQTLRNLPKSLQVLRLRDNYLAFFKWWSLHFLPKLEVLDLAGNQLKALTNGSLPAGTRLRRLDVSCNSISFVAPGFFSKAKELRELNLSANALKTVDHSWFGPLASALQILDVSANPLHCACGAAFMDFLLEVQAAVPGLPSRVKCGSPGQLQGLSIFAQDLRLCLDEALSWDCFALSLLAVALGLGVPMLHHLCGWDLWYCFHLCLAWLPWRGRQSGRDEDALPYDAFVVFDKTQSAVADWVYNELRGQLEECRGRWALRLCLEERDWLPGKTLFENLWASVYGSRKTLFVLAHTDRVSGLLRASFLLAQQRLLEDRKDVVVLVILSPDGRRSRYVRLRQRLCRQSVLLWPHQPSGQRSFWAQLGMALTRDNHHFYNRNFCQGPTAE
The experiment can be described thus: HEK293-Blue-hTLR-9 cells assay (SEAP reporter, ODN2006 stimulation). Conditions: HEK293-Blue-hTLR9 cells, ODN2006, 20 hrs; 0.032 is the lowest tested concentration; read-out: HEK/hTLR9 IC50. The class given is cell-based. As to the method: The following tests were carried out in order to determine the activity of the compounds of formula (I) or (Ia) in HEK293-Blue-hTLR-7/8/9 cells assay.
HEK293-Blue-hTLR-9 cells assay:
A stable HEK293-Blue-hTLR-9 cell line was purchased from InvivoGen (Cat.#: hkb-htlr9, San Diego, California, USA). These cells were originally designed for studying the stimulation of human TLR9 by monitoring the activation of NF-κB. A SEAP (secreted embryonic alkaline phosphatase) reporter gene was placed under the control of the IFN-β minimal promoter fused to five NF-κB and AP-1-binding sites. The SEAP was induced by activating NF-κB and AP-1 via stimulating HEK-Blue hTLR9 cells with TLR9 ligands. Therefore the reporter expression was declined by TLR9 antagonist under the stimulation of a ligand, such as ODN2006 (Cat.#: tlrl-2006-1, Invivogen, San Diego, California, USA), for incubation of 20 hrs. The cell culture supernatant SEAP reporter activity was determined using QUANTI-Blue™ kit (Cat.#: rep-qb1, Invivogen, San Diego, California, USA) at a wavelength of 640 nm, a detection medium that turns purple or blue in the presence of alkaline phosphatase.
HEK293-Blue-hTLR9 cells were incubated at a density of 250,000∼450,000 cells/mL in a volume of 170 µL in a 96-well plate in Dulbecco's Modified Eagle's medium (DMEM) containing 4.5 g/L glucose, 50 U/mL penicillin, […], […], 2 mM L-glutamine, 10% (v/v) heat-inactivated fetal bovine serum with addition of 20 µL test compound in a serial dilution in the presence of final DMSO at 1% and 10 µL of 20uM ODN2006 in above DMEM, perform incubation under 37 °C in a CO2 incubator for 20 hrs. Then 20 µL of the supernatant from each well was incubated with 180 µL Quanti-blue substrate solution at 37 °C for 2 hrs and the absorbance was read at 620∼655 nm using a spectrophotometer. The signalling pathway that TLR9 activation leads to downstream NF-κB activation has been widely accepted, and therefore similar reporter assay was modified for evaluating TLR9 antagonist.
Consider `C[C@@H]1CN(c2ccc(C#N)c3ncccc23)C[C@H](CN2Cc3cnc(N4CCNCC4)nc3C2)O1` [Example 63, 5-[(2R,6S)-2-methyl-6-[(2-piperazin-1-yl-5,7-dihydropyrrolo[3,4-d]pyrimidin-6-yl)methyl]morpholin-4-yl]quinoline-8-carbonitrile], for which the IC50 was found to be 120 nM.

Turning to `C[C@@H]1CN(c2ccc(C#N)c3ncccc23)C[C@H](CN2Cc3ccc(N4CCN[C@@H](C)C4)cc3C2)O1` [Example 64, 5-[(2R,6S)-2-methyl-6-[[5-[(3S)-3-methylpiperazin-1-yl]isoindolin-2-yl]methyl]morpholin-4-yl]quinoline-8-carbonitrile], the IC50 is 75 nM.

In the case of `C[C@@H]1CN(c2ccc3c(c2)CN(C[C@H]2CN(c4ccc(C#N)c5nccnc45)C[C@@H](C)O2)C3)CCN1` [Example 65, 8-[(2R,6S)-2-methyl-6-[[5-[(3R)-3-methylpiperazin-1-yl]isoindolin-2-yl]methyl]morpholin-4-yl] quinoxaline-5-carbonitrile], the IC50 came out at 59 nM.

Take `C[C@@H]1CN(c2ccc(C#N)c3nccnc23)C[C@H](CN2Cc3ccc(N4CCN[C@@H](C)C4)cc3C2)O1` [Example 66, 8-[(2R,6S)-2-methyl-6-[[5-[(3S)-3-methylpiperazin-1-yl]isoindolin-2-yl]methyl]morpholin-4-yl]quinoxaline-5-carbonitrile]: the IC50 was 83 nM.

Turning to `COC(=O)C1CN(c2ccc3c(c2)CN(C[C@H]2CN(c4ccc(C#N)c5ncccc45)C[C@@H](C)O2)C3)CCN1` (stereo partly drawn) [Example 67, Methyl 4-[2-[[(2S,6R)-4-(8-cyano-5-quinolyl)-6-methyl-morpholin-2-yl]methyl]isoindolin-5-yl] piperazine-2-carboxylate], the IC50 turned out to be 221 nM.

For the compound `C[C@@H]1CN(c2ccc(C#N)c3ncccc23)C[C@H](CN2Cc3cc(N4CCN(C)CC4)cc(F)c3C2)O1` [Example 69, 5-[(2S,6R)-2-[[4-fluoro-6-(4-methylpiperazin-1-yl)isoindolin-2-yl]methyl]-6-methyl-morpholin-4-yl]quinoline-8-carbonitrile], the IC50 came out at 81 nM.

Consider `C[C@@H]1CN(c2ccc(C#N)c3ncccc23)C[C@H](CN2CCc3cc(N4CCNCC4)ncc3C2)O1` [Example 70, 5-[(2R,6S)-2-methyl-6-[(6-piperazin-1-yl-3,4-dihydro-1H-2,7-naphthyridin-2-yl)methyl]morpholin-4-yl]quinoline-8-carbonitrile], for which the IC50 is under 32 nM.

Consider `C[C@@H]1CN(c2ccc3c(c2)CN(C[C@H]2CN(c4ccc(C#N)c5ncccc45)C[C@@H](C)O2)C3)C[C@H](C)N1` [Example 71, 5-[(2R,6S)-2-methyl-6-[[5-[(3R,5S)-3,5-dimethylpiperazin-1-yl]isoindolin-2-yl]methyl]morpholin-4-yl]quinoline-8-carbonitrile], for which the IC50 amounted to 73 nM.

For `C[C@@H]1CN(c2ccc(C#N)c3ncccc23)C[C@H](CN2Cc3ccc(N4CC5COCC(C4)N5)cc3C2)O1` [Example 72, 5-[(2R,6S)-2-methyl-6-[[5-(3-oxa-7,9-diazabicyclo[3.3.1]nonan-7-yl)isoindolin-2-yl]methyl]morpholin-4-yl]quinoline-8-carbonitrile], the IC50 was 66 nM.

Turning to `C[C@@H]1CN(c2ccc(C#N)c3ncccc23)C[C@H](CN2Cc3ccc(N4CCNCC4CO)cc3C2)O1` (stereo partly drawn) [Example 73, 5-[(2S,6R)-2-[[5-[2-(hydroxymethyl)piperazin-1-yl]isoindolin-2-yl]methyl]-6-methyl-morpholin-4-yl]quinoline-8-carbonitrile], the IC50 came to 60 nM.

Regarding `C[C@@H]1CN(c2ccc(C#N)c3ncccc23)C[C@H](CN2Cc3ccc(CN4CCCCC4)cc3C2)O1` [Example 74, 5-[(2R,6S)-2-methyl-6-[[5-(1-piperidylmethyl)isoindolin-2-yl]methyl]morpholin-4-yl]quinoline-8-carbonitrile], the IC50 turned out to be 73 nM.

As to `C[C@@H]1CN(c2ccc(C#N)c3ncccc23)C[C@H](CN2Cc3ccc(N4CCNCC4)cc3C(O)C2)O1` (stereo partly drawn) [Example 75, 5-[(2S,6R)-2-[(4-hydroxy-6-piperazin-1-yl-3,4-dihydro-1H-isoquinolin-2-yl)methyl]-6-methyl-morpholin-4-yl]quinoline-8-carbonitrile], the IC50 was 55 nM.

`C[C@@H]1CN(c2ccc(C#N)c3ncccc23)C[C@H](CN2Cc3ccc(N4CCNCC4C(F)F)cc3C2)O1` (stereo partly drawn) [Example 76, 5-[(2S,6R)-2-[[5-[2-(difluoromethyl)piperazin-1-yl]isoindolin-2-yl]methyl]-6-methyl-morpholin-4-yl]quinoline-8-carbonitrile]: the IC50 amounted to 190 nM.

As to `C[C@@H]1CN(c2ccc(C#N)c3ncccc23)C[C@H](CN2Cc3ccc(N4CC(N)C4)cc3C2)O1` [Example 77, 5-[(2S,6R)-2-[[5-(3-aminoazetidin-1-yl)isoindolin-2-yl]methyl]-6-methyl-morpholin-4-yl]quinoline-8-carbonitrile], the IC50 is 239 nM.

In the case of `CC1CNCCN1c1ccc2c(c1)CN(C[C@H]1CN(c3ccc(C#N)c4ncccc34)C[C@@H](C)O1)C2` (stereo partly drawn) [Example 78, 5-[(2R,6S)-2-methyl-6-[[5-(2-methylpiperazin-1-yl)isoindolin-2-yl]methyl]morpholin-4-yl] quinoline-8-carbonitrile], the IC50 is 163 nM.

Turning to `C[C@@H]1CN(c2ccc(C#N)c3ncccc23)C[C@H](CN2CCc3nc(N4CCNCC4)ccc3C2)O1` [Example 79, 5-[(2R,6S)-2-methyl-6-[(2-piperazin-1-yl-7,8-dihydro-5H-1,6-naphthyridin-6-yl)methyl]morpholin-4-yl]quinoline-8-carbonitrile], the IC50 was under 32 nM.

As to `C[C@@H]1CN(c2ccc(C#N)c3ncccc23)C[C@H](CN2Cc3ccc(N4CCNCC4)nc3C2)O1` [Example 80, 5-[(2R,6S)-2-methyl-6-[(2-piperazin-1-yl-5,7-dihydropyrrolo[3,4-b]pyridin-6-yl)methyl]morpholin-4-yl]quinoline-8-carbonitrile], the IC50 stood at 56 nM.

For the compound `C[C@@H]1CN(c2ccc(C#N)c3ncccc23)C[C@H](CN2Cc3ccc(N4CCNC[C@@H]4CO)cc3C2)O1` [Example 82, 5-[(2S,6R)-2-[[5-[(2R)-2-(hydroxymethyl)piperazin-1-yl]isoindolin-2-yl]methyl]-6-methyl-morpholin-4-yl]quinoline-8-carbonitrile], the IC50 is 54 nM.

With `C[C@@H]1CN(c2ccc(C#N)c3ncccc23)C[C@H](CN2Cc3ccc(N4CCNC[C@H]4CO)cc3C2)O1` [Example 83, 5-[(2S,6R)-2-[[5-[(2S)-2-(hydroxymethyl)piperazin-1-yl]isoindolin-2-yl]methyl]-6-methyl-morpholin-4-yl]quinoline-8-carbonitrile], the IC50 stood at 63 nM.

As for `C[C@@H]1CN(c2ccc(C#N)c3nccnc23)C[C@H](CNCc2ccc(N3CCNCC3)cc2)O1` [Example 84, 8-[(2R,6S)-2-methyl-6-[[(4-piperazin-1-ylphenyl)methylamino]methyl]morpholin-4-yl]quinoxaline-5-carbonitrile], the IC50 came out at 50 nM.
